From ChEMBL document CHEMBL1201862, “PubChem BioAssay data set” (2004)
Active and inactive are the calls of the source.

Experiments:
[1] = system: HEK293; test: inhibition of NOD1-driven NF-kB reporter – cell-based, luminescence, uHTS, primary screen (AID 1578); assay type: functional; conditions: Homo sapiens
[2] = system: HEK293; test: cells; assay type: functional, cell-based; conditions: Homo sapiens
[3] = system: HEK293; test: cells; assay type: functional, cell-based; conditions: Homo sapiens; remark: listed apart in the source
[4] = target: Nucleotide-binding oligomerization domain-containing protein 2 (Homo sapiens, UniProt Q9HC29); test: inhibition of NOD2-driven NF-kB reporter – cell-based, luminescence, uHTS, HEK293 (AID 1566); assay type: functional
[5] = system: HEK293; test: NOD2 signaling inhibitors in MDP-stimulated cells, cell-based, uHTS, luminescence (AID 2001); assay type: functional; conditions: Homo sapiens
[6] = system: HEK293; test: cells; assay type: functional, cell-based; conditions: Homo sapiens; remark: listed apart in the source
[7] = target: T1, Coagulation factor XII (Homo sapiens, UniProt P00748); test: activated coagulation factor XII inhibitor potency, concentration-effect curve, cell-free (AID 716); assay type: functional
T1 sequence (P00748 whole entry): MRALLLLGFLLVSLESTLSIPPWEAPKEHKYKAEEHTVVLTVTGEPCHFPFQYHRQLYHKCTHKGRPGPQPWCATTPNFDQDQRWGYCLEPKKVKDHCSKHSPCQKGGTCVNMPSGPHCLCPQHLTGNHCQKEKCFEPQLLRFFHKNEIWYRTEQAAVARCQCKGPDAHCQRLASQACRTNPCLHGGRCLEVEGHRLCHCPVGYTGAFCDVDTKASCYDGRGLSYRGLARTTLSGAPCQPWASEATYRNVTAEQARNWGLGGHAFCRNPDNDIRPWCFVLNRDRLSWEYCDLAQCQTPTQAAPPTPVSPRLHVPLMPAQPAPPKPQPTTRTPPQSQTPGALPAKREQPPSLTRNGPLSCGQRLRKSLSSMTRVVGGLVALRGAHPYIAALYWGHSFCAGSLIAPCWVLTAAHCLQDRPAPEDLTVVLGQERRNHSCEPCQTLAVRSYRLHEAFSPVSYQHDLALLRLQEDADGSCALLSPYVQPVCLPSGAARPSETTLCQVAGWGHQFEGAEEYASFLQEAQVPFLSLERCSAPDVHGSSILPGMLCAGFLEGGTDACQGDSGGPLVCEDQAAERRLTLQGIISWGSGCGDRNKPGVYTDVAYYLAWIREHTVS

[8] = target: E3 ubiquitin-protein ligase XIAP (Homo sapiens, UniProt P98170); test: Counter Screen using XIAP-Bir3 for Chemical Antagonists of Bir1/2 domains of IAP-family anti-apoptotic proteins. [Related pubchem assays (depositor defined):AID1018, AID1449, AID1514, AID1638, AID1749, AID1750, AID488957, AID488963]
[9] = target: Eukaryotic translation initiation factor 4H (Homo sapiens, UniProt Q15056); test: inhibitors of translation initiation factor eIF4H – SAR follow-up (AID 435011); assay type: functional
[10] = target: Polyadenylate-binding protein 1 (Homo sapiens, UniProt P11940); test: PABP inhibition in translation initiation, SAR follow-up (AID 435018); assay type: functional
[11] = target: T2, Carboxy-terminal domain RNA polymerase II polypeptide A small phosphatase 1 (Homo sapiens, UniProt Q9GZU7); test: CTDSP1 inhibitors, concentration-response, biochemical, absorbance readout, ultra-high-throughput screen actives (AID 540297); assay type: functional
T2 sequence (Q9GZU7 whole entry): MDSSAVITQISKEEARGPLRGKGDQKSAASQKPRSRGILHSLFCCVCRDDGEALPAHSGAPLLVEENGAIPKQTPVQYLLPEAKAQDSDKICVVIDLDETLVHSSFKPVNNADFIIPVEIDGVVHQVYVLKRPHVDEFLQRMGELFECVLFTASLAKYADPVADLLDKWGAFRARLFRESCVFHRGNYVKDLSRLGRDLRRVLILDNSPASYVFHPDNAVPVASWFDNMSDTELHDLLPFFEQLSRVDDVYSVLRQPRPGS

[12] = system: Streptococcus sp. 'group A'; test: Streptococcus pyogenes SK(-)GAS viability under kanamycin – luminescence, BacTiterGlo, confirmation, counter-screen for streptokinase expression inhibitor project, dose response (AID 1900); assay type: functional, organism-based
[13] = target: T3, Streptokinase A (Streptococcus pyogenes serotype M1, UniProt P10520); test: viability-normalized secreted streptokinase activity reduction – plasminogen activation absorbance, OD405, dose response (AID 1914); assay type: functional, Streptococcus pyogenes M1 GAS;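 note: secreted streptokinase activity via plasminogen activation per viability signal from cell pellet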
T3 sequence (P10520 whole entry): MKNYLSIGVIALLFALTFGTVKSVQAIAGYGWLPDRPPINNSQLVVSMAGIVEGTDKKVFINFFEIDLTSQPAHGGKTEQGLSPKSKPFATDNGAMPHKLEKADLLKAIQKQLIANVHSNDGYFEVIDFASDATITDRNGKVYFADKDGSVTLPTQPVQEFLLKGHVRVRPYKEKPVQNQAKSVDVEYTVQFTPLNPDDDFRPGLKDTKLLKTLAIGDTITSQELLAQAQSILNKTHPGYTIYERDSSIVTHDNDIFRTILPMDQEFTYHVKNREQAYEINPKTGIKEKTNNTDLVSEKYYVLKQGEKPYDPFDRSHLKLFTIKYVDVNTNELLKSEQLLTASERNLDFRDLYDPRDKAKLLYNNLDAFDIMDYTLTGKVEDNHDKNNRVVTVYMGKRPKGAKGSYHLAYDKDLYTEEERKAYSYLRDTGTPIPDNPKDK

[14] = target: Prothrombin (Homo sapiens, UniProt P00734); test: Thrombin 1536 HTS Dose Response Confirmation. [Related pubchem assays: 1046 (Thrombin 1536 HTS; hits were confirmed in this assay)]; assay type: functional
[15] = system: Streptococcus; test: GAS UMAA2166 growth inhibition – luminescence, BacTiterGlo, counter-screen for streptokinase expression inhibitor project, dose response (AID 1915); assay type: functional, organism-based;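 note: potency for reduction of bacterial viability or growth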
[16] = target: G-protein coupled receptor 55 (Homo sapiens, UniProt Q9Y2T6); test: selective activators of receptor GPR55 – imaging, U2OS cells, beta-arrestin-GFP redistribution, primary screen (AID 1961); assay type: functional
[17] = target: Cytochrome P450 2D6 (Homo sapiens, UniProt P10635);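 note: CYP2D6 member of a cytochrome P450 panel assay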
[18] = target: Cytochrome P450 2C9 (Homo sapiens, UniProt P11712)
[19] = target: Protein Rev (Human immunodeficiency virus type 1 group M subtype B (isolate HXB2)(HIV-1), UniProt P04618); test: blockers of HIV Rev/RRE RNA complex – biochemical, fluorescence polarization, HIV-1, dose response (AID 434976); design: species or system Human immunodeficiency virus 1
[20] = target: Female germline-specific tumor suppressor gld-1 (Caenorhabditis elegans, UniProt Q17339); test: blockers of GLD-1/TGE RNA complex formation – biochemical, fluorescence polarization, C. elegans, dose response (AID 2802);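 note: fluorescence polarization of labeled TGE RNA bound by purified gld-1 protein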
[21] = target: Induced myeloid leukemia cell differentiation protein Mcl-1 (Homo sapiens, UniProt Q07820); assay type: functional
[22] = target: X-box-binding protein 1 (Homo sapiens, UniProt P17861); assay type: functional, Cricetulus griseus;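 note: confirmatory dose-response counter-screen serving a CHOP assay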
[23] = target: Genome polyprotein (dengue virus type 2, UniProt P29990); test: flavivirus cap methylation enzyme inhibition – biochemical, confirmation dose response, primary screen (AID 588689); assay type: functional
[24] = target: CAAX prenyl protease 2 (Saccharomyces cerevisiae S288c, UniProt Q03530); assay type: biochemical
[25] = microbe, parasite or virus in culture; assay type: functional; conditions: Mycobacterium tuberculosis
[26] = viability of PTEN-deleted HCT116 cells – cell-based, HCT116 PTEN knockout, dose response (AID 1047); assay type: functional;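 note: HCT116 colon tumor cells with PTEN knocked out; cells exposed to compound for 60 hours before readout; potency for loss of cell viability measured by luminescence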
[27] = viability of HCT116 lacking mutant beta-catenin – cell-based, human colon tumor, dose response (AID 1045); assay type: functional;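 note: HCT116 colon tumor cells with beta catenin knocked out; cells exposed to compound for 60 hours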
[28] = target: Nonstructural protein 1 (Influenza A virus, UniProt Q194T2); assay type: functional, Influenza A virus (A/California/07/2009(H1N1))
[29] = target: T4, Bcl-2-like protein 10 (Homo sapiens, UniProt Q9HD36); test: Bcl-B/TR3 peptide binding disruption – biochemical, fluorescence polarization, FITC-TR3 peptide, selectivity assay for Bfl-1 inhibitor project, primary screen (AID 748);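 note: fluorescence polarization from a fluorescein-labelled TR3 peptide binding purified Bcl-B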
T4 sequence (Q9HD36 whole entry): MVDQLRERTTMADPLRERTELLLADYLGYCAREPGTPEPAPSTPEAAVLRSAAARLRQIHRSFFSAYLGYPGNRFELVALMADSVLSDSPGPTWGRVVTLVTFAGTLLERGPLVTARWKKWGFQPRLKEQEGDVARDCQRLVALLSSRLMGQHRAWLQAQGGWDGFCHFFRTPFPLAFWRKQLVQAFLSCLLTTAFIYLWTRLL

[30] = Trypanosoma cruzi growth suppression in host cells – NIH3T3 host cells, beta-gal luminescence, confirmation (AID 2044); assay type: functional, cell-based;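 note: intracellular parasites grown in NIH/3T3 mouse fibroblasts as host cells; luminescent beta-galactosidase reporter signal from transgenic T. cruzi replicating inside host cells; inhibitors lower the luminescence signal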
[31] = NIH3T3 cell viability loss – ATP luminescence, mouse fibroblasts, counter-screen, dose response (AID 2010); assay type: functional, cell-based;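 note: cells exposed to compound for about 90 hours before reading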
[32] = target: T5, Corticotropin-releasing factor receptor 2/Corticotropin-releasing factor-binding protein (Homo sapiens, UniProt P24387+Q13324); test: activators of CRF receptor 2 with binding protein – uHTS hits, confirmation (AID 602473); assay type: functional; conditions: read-out: EC50_Mean
T5 sequence (Q13324 whole entry): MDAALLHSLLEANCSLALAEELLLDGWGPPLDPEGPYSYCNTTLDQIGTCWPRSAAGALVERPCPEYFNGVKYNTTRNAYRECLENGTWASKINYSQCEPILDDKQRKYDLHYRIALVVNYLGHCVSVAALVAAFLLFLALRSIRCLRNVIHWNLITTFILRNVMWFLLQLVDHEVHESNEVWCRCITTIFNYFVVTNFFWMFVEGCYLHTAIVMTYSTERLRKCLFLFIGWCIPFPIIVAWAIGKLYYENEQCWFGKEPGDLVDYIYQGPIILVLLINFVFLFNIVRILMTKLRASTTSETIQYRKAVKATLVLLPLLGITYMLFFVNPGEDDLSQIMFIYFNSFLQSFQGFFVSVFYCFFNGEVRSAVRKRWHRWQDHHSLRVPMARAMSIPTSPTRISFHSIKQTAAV
T5 sequence (P24387 whole entry): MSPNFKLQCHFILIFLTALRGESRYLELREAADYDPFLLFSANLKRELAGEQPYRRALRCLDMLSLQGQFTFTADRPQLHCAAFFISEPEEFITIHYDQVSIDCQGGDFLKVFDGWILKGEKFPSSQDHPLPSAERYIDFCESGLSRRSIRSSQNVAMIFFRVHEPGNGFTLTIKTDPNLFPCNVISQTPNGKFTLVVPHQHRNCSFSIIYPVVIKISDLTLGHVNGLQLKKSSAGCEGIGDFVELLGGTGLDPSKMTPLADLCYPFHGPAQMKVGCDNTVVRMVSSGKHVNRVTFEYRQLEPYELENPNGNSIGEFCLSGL

[33] = target: 1-acylglycerol-3-phosphate O-acyltransferase ABHD5/Perilipin-5 (Homo sapiens, UniProt Q00G26+Q8WTS1); test: Luminescence-based biochemical high throughput dose response assay for inhibitors of the interaction of the lipase co-activator protein, abhydrolase domain containing 5 (ABHD5) with perilipin-5 (MLDP; PLIN5) (2K validation set). [Related pubchem assays (depositor defined):AID493035, AID493241]
[34] = target: Perilipin-1/ABHD5 (Homo sapiens, UniProt O60240+Q8WTS1); test: Luminescence-based biochemical high throughput dose response assay for inhibitors of the interaction of the lipase co-activator protein, abhydrolase domain containing 5 (ABHD5) with perilipin-1 (PLIN1) (2K validation set). [Related pubchem assays (depositor defined):AID493027, AID493057]

Chain of X-box-binding protein 1 (P17861 whole entry): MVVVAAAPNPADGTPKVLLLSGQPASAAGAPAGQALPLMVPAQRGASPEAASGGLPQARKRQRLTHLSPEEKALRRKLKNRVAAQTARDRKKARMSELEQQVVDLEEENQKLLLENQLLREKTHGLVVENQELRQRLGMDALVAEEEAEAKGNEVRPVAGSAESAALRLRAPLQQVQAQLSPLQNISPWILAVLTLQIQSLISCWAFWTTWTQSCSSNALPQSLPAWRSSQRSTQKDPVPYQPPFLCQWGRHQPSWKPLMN
Chain of G-protein coupled receptor 55 (Q9Y2T6 whole entry): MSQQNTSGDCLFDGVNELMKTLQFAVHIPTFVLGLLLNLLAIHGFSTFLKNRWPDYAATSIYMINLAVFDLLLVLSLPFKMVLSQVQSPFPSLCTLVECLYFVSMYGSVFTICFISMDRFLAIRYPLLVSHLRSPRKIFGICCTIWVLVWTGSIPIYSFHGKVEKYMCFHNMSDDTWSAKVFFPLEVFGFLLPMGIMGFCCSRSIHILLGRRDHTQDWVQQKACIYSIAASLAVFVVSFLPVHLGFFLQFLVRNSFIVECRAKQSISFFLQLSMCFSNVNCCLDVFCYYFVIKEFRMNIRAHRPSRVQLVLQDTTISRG
Chain of Polyadenylate-binding protein 1 (P11940 whole entry, the tested form may be a part): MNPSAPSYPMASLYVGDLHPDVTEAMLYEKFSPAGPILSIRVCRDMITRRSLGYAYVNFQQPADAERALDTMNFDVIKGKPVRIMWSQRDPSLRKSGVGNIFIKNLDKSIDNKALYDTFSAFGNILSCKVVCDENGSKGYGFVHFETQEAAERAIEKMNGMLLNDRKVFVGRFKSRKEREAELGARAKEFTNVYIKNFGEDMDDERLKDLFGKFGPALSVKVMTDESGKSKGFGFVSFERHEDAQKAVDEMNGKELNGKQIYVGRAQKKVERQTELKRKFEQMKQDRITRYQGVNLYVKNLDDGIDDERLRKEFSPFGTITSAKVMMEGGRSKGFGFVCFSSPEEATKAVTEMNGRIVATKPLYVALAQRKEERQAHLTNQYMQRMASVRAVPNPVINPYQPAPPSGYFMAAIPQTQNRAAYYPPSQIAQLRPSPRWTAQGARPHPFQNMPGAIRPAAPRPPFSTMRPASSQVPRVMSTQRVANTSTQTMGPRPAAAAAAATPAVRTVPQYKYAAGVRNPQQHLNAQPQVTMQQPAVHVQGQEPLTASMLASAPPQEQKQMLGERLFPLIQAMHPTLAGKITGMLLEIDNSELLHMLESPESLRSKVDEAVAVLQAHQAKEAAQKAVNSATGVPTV
Chain of Cytochrome P450 2C9 (P11712 whole entry): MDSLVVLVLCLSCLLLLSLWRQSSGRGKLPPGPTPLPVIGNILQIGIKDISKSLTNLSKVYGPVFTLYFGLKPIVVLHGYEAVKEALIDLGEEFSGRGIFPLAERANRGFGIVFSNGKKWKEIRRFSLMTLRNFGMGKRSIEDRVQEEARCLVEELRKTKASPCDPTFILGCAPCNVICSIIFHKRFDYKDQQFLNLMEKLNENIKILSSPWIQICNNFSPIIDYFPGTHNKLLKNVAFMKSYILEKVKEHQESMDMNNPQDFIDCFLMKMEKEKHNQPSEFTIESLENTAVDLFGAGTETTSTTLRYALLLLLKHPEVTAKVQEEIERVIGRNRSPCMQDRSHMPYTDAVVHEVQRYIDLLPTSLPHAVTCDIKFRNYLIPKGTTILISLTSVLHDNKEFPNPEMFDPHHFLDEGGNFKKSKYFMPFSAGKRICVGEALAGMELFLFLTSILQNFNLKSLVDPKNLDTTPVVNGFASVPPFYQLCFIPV
Chain of Induced myeloid leukemia cell differentiation protein Mcl-1 (Q07820 whole entry): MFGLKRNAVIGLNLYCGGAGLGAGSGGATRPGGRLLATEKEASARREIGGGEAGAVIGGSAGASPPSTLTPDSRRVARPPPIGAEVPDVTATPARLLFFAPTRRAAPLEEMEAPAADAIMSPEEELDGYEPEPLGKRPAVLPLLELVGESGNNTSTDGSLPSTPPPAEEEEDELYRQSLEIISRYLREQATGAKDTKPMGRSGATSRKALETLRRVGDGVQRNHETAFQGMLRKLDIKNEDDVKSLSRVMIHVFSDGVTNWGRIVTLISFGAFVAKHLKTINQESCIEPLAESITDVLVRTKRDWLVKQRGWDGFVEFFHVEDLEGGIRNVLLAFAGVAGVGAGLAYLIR
Chain of Nonstructural protein 1 (Q194T2 whole entry): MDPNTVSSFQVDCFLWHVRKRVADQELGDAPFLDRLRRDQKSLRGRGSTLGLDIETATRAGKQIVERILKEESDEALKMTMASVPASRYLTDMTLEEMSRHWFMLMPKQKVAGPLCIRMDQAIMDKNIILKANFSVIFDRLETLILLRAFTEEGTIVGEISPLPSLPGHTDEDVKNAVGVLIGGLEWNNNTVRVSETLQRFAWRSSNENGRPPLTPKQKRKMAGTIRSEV
Chain of E3 ubiquitin-protein ligase XIAP (P98170 whole entry): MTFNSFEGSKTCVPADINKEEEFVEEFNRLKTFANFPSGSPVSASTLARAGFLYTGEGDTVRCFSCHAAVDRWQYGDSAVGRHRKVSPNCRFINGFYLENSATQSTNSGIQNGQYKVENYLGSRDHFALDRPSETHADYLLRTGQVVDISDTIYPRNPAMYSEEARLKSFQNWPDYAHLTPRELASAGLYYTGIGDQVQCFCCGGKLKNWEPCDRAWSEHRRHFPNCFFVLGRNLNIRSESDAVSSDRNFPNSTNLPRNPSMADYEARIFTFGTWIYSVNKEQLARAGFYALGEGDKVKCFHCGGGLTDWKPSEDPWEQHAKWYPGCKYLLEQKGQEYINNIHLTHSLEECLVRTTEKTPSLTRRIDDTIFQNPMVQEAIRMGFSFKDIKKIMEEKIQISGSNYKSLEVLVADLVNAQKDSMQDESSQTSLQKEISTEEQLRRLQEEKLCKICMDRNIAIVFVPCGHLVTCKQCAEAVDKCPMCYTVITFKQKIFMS
Chain of Genome polyprotein (P29990 2492-3391 limits assumed): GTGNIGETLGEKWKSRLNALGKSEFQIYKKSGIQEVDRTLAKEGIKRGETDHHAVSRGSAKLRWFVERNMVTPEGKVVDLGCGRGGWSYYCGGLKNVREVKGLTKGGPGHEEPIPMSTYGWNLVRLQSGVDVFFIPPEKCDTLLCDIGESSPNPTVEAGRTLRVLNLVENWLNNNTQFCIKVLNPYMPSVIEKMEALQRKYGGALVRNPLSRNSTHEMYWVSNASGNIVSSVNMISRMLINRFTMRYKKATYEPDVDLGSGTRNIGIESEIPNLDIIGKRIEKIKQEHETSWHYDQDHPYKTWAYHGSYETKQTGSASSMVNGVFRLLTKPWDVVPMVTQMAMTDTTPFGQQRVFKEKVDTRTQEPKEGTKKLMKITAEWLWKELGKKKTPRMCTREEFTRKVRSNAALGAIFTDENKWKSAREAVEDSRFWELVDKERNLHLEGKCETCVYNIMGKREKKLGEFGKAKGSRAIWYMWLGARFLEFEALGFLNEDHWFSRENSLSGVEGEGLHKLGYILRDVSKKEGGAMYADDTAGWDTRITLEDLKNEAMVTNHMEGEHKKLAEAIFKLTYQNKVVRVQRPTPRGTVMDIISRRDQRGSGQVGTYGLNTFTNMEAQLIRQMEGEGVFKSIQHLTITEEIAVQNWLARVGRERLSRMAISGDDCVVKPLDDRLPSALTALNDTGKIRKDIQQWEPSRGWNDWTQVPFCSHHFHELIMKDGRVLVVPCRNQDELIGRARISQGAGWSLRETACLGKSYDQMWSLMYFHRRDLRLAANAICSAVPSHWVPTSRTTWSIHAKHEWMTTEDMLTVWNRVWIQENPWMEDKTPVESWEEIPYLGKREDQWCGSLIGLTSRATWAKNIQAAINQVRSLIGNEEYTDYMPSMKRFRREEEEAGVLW
Chain of Nucleotide-binding oligomerization domain-containing protein 2 (Q9HC29 whole entry, the tested form may be a part): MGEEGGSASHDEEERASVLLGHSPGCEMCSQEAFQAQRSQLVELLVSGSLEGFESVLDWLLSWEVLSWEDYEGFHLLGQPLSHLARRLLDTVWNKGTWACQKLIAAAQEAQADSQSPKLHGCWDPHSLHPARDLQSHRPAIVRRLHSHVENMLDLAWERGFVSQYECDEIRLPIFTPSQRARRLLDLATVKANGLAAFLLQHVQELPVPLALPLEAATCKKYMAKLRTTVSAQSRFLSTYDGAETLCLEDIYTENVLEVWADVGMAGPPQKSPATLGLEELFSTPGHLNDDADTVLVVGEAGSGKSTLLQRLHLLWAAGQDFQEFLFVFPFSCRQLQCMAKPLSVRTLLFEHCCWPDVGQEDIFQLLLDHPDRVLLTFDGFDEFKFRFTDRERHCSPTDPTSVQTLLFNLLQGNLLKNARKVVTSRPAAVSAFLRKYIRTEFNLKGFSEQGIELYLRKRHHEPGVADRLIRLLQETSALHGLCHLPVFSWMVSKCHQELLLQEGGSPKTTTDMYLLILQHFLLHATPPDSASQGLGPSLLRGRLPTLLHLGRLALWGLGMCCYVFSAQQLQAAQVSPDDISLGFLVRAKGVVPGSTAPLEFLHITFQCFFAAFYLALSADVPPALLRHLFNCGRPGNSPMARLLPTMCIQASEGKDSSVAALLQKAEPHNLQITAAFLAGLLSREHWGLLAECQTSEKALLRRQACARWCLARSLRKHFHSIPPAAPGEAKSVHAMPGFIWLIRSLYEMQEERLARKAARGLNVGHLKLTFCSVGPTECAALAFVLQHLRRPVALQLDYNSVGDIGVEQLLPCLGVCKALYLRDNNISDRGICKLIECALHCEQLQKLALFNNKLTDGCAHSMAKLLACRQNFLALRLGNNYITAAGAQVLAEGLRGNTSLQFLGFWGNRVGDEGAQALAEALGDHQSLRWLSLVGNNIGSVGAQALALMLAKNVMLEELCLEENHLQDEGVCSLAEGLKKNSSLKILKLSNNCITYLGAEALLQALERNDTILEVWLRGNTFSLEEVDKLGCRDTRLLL

With `Cc1ccc(NC(=O)CCC(=O)N/N=C/c2ccccc2O)cc1` the EC50 [1] was > 20 µM (inactive), the IC50 [2] was 14.7 µM (active) and the IC50 [3] was > 20 µM (inactive). For the same compound, the EC50 [4] was > 20 µM (inactive), the IC50 [5] was > 20 µM (inactive) and the IC50 [6] was > 20 µM (inactive).
For `Cn1c(=O)c(C(=O)CN2CCCc3ccccc32)c(N)n(Cc2ccccc2)c1=O`, the IC50 [7] was > 50 µM (inactive).
With `Cc1ccccc1NC(=O)CN1C(=O)N/C(=C\c2ccccc2OCc2ccc(C(=O)O)cc2)C1=O` the IC50 [8] was > 20 µM (inactive), the IC50 [9] was 7.28 µM (active) and the IC50 [10] was 78.5 µM (active). The IC50 [11] was 4.3 µM (active).
With `Cc1ccccc1-n1cnc2cc(NCc3cccs3)ccc21` the EC50 [12] was 16.8 µM (active), the EC50 [13] was 87.8 µM (active) and the IC50 [14] was > 50 µM (not active). The EC50 [15] was > 150 µM (not active), the EC50 [16] was > 32 µM (inactive) and the AC50 [17] was 2.24 µM (inconclusive). The AC50 [18] was 39.8 µM (inconclusive).
With `CN(C)c1ccc(/N=C2\C(=O)N(C)c3cccc4c(O)c5ccccc5c2c34)cc1` the IC50 [19] was 1.05 µM (active), the IC50 [20] was 0.868 µM (active) and the IC50 [21] was 10.6 µM (active).
With `CSC(SC)=C(C#N)C(=O)c1ccccc1` the “Absolute IC50 (XBP1)” value [22] was 10 µM and the IC50 [23] was 84.6 µM (active).
For `CC(C)c1nnc(N2C(=O)c3oc4ccccc4c(=O)c3C2c2ccco2)s1` (stereo not given), the “Absolute IC50 (XBP1)” value [22] was 10 µM.
In the case of `COc1ccc(C2Nc3ccccc3C(=O)N2Cc2ccccc2)cc1COc1ccccn1` (stereo not given), the AC50 [24] is reported as 5.83 µM (active).
For `COc1ccc(C(=O)OCC(=O)Nc2ccc([N+](=O)[O-])cc2OC)c(O)c1`, the IC50 [9] was > 100 µM (inactive) and the IC50 [10] was > 100 µM (inactive).
With `O=C1Nc2ccccc2/C1=N\N=C\C1=C(N2CCOCC2)C(=C\c2ccccc2)/CC1` the CC50 [25] was 28.2 µM (active), the EC50 [26] was 14.2 µM (active) and the EC50 [27] was 16 µM (active). For the same compound, the EC50 [16] was > 32 µM (inactive) and the IC50 [28] was 8.08 µM (active).
With `Cc1cc2c(cc1C)NC(c1c(C)n(C)n(-c3ccccc3)c1=O)C1=C(O)CC(C)(C)CC1=N2` (stereo not given) the IC50 [29] was > 1.56 µM (inactive), the EC50 [30] was 2.27 µM (active) and the EC50 [31] was > 30 µM (not active). The EC50 [32] was > 53 µM (inactive).
For `CCOCC(=O)Nc1cc(-c2cn3cccnc3n2)ccc1C`, the IC50 [7] was > 50 µM (inactive) and the AC50 [18] was 22.4 µM (inconclusive).
For `COc1ccc(/C=C/C(=O)c2cc3cccc(OC)c3oc2=O)cc1`, the IC50 [33] was 3.3 µM (active) and the IC50 [34] was 3.34 µM (active).
